{"source": "paper PMC5218480", "about": "(PLoS ONE, 2017)", "tested_on": "MV-4-11 cells", "test": "Gene expression microarray analysis (Affymetrix PrimeView) and GSEA", "format": "cell-based, human", "set-up": "RFU PODN (11730768_x_at) / Fold change /veh PODN (11730768_x_at) / RFU LINC00158 (11744669_a_at) / Fold change /veh LINC00158 (11744669_a_at) / RFU DUSP10 (11751237_a_at) / Fold change /veh DUSP10 (11751237_a_at) / RFU ID3 (11757404_x_at) / Fold change /veh ID3 (11757404_x_at) / RFU PLEKHG5 (11737974_s_at) / Fold change /veh PLEKHG5 (11737974_s_at) / RFU LRRC4B (11730491_at) / Fold change /veh LRRC4B (11730491_at) / RFU GIMAP4 (11747438_a_at) / Fold change /veh GIMAP4 (11747438_a_at) / RFU KRT8 (11758183_x_at) / Fold change /veh KRT8 (11758183_x_at) / RFU CNN1 (11734310_a_at) / Fold change /veh CNN1 (11734310_a_at) / RFU VPS37D (11726825_at) / Fold change /veh VPS37D (11726825_at) / RFU C10orf10 (11716522_x_at) / Fold change /veh C10orf10 (11716522_x_at) / RFU KIR2DL2 /// KIR2DL4 /// KIR2DL5A /// KIR2DL5B /// KIR2DS1 /// KIR2DS2 /// KIR2DS3 /// KIR2DS4 /// KIR3DL3 /// KIR3DL3 /// KIR3DS1 (11738374_at) / Fold change /veh KIR2DL2 /// KIR2DL4 /// KIR2DL5A /// KIR2DL5B /// KIR2DS1 /// KIR2DS2 /// KIR2DS3 /// KIR2DS4 /// KIR3DL3 /// KIR3DL3 /// KIR3DS1 (11738374_at) / RFU C1QL1 (11718748_at) / Fold change /veh C1QL1 (11718748_at) / RFU TMPRSS4 (11747572_a_at) / Fold change /veh TMPRSS4 (11747572_a_at) / RFU HAMP (11756126_x_at) / Fold change /veh HAMP (11756126_x_at) / RFU RNFT2 (11725882_a_at) / Fold change /veh RNFT2 (11725882_a_at) / RFU NR4A2 (11747474_a_at) / Fold change /veh NR4A2 (11747474_a_at) / RFU ABCC12 (11746883_a_at) / Fold change /veh ABCC12 (11746883_a_at) / RFU TMEM136 (11760407_x_at) / Fold change /veh TMEM136 (11760407_x_at) / RFU CLDN22 /// WWC2 (11732394_at) / Fold change /veh CLDN22 /// WWC2 (11732394_at) / RFU HLA-DPB1 (11760878_x_at) / Fold change /veh HLA-DPB1 (11760878_x_at) / RFU SPINT1 (11716480_a_at) / Fold change /veh SPINT1 (11716480_a_at) / RFU GAP43 (11754022_s_at) / Fold change /veh GAP43 (11754022_s_at) / RFU A4GNT (11735810_at) / Fold change /veh A4GNT (11735810_at) / RFU PRB3 (11715151_x_at) / Fold change /veh PRB3 (11715151_x_at) / RFU TUBB4B (11761932_at) / Fold change /veh TUBB4B (11761932_at) / RFU CAPN14 (11732068_a_at) / Fold change /veh CAPN14 (11732068_a_at) / RFU TMCC2 (11721928_a_at) / Fold change /veh TMCC2 (11721928_a_at) / RFU IRGQ (11745062_a_at) / Fold change /veh IRGQ (11745062_a_at) / RFU FAM174B (11720279_a_at) / Fold change /veh FAM174B (11720279_a_at) / RFU TMPRSS4 (11748680_a_at) / Fold change /veh TMPRSS4 (11748680_a_at) / RFU FAM212B (11763350_a_at) / Fold change /veh FAM212B (11763350_a_at) / RFU PLEKHG5 (11743358_a_at) / Fold change /veh PLEKHG5 (11743358_a_at) / RFU ZSCAN30 (11745921_a_at) / Fold change /veh ZSCAN30 (11745921_a_at) / RFU CMKLR1 (11741424_a_at) / Fold change /veh CMKLR1 (11741424_a_at) / RFU LOC101060620 /// MAPK8IP1 (11723275_at) / Fold change /veh LOC101060620 /// MAPK8IP1 (11723275_at) / RFU SPTSSB (11747773_x_at) / Fold change /veh SPTSSB (11747773_x_at) / RFU PRSS12 (11739890_at) / Fold change /veh PRSS12 (11739890_at) / RFU BIN1 (11741810_x_at) / Fold change /veh BIN1 (11741810_x_at) / RFU WNT11 (11732464_a_at) / Fold change /veh WNT11 (11732464_a_at) / RFU C10orf10 (11716521_a_at) / Fold change /veh C10orf10 (11716521_a_at) / RFU C5orf56 (11738089_at) / Fold change /veh C5orf56 (11738089_at) / RFU CYB561 (11721691_x_at) / Fold change /veh CYB561 (11721691_x_at) / RFU ANKRD19P (11752326_a_at) / Fold change /veh ANKRD19P (11752326_a_at) / RFU OR2T12 /// OR2T33 /// OR2T8 (11738714_s_at) / Fold change /veh OR2T12 /// OR2T33 /// OR2T8 (11738714_s_at) / RFU VCAN (11748164_a_at) / Fold change /veh VCAN (11748164_a_at) / RFU JSRP1 (11732532_at) / Fold change /veh JSRP1 (11732532_at) / RFU KRTAP10-11 (11738290_x_at) / Fold change /veh KRTAP10-11 (11738290_x_at) / RFU MYO3A (11730013_a_at) / Fold change /veh MYO3A (11730013_a_at) / RFU EBF3 (11725865_a_at) / Fold change /veh EBF3 (11725865_a_at) / RFU CAMK2N1 (11719241_x_at) / Fold change /veh CAMK2N1 (11719241_x_at) / RFU C5orf56 (11738088_a_at) / Fold change /veh C5orf56 (11738088_a_at) / RFU OLFML3 (11715873_a_at) / Fold change /veh OLFML3 (11715873_a_at) / RFU LOC100653217 /// NTM (11731650_a_at) / Fold change /veh LOC100653217 /// NTM (11731650_a_at) / RFU MAPK11 (11762145_a_at) / Fold change /veh MAPK11 (11762145_a_at) / RFU FIZ1 (11724087_x_at) / Fold change /veh FIZ1 (11724087_x_at) / RFU OASL (11726364_x_at) / Fold change /veh OASL (11726364_x_at) / RFU SOX15 (11748057_x_at) / Fold change /veh SOX15 (11748057_x_at) / RFU CD79A (11719716_a_at) / Fold change /veh CD79A (11719716_a_at) / RFU HIST1H1D (11736915_at) / Fold change /veh HIST1H1D (11736915_at) / RFU CASKIN2 (11723855_a_at) / Fold change /veh CASKIN2 (11723855_a_at) / RFU LOC730098 (11760151_x_at) / Fold change /veh LOC730098 (11760151_x_at) / RFU OR4N2 (11742367_at) / Fold change /veh OR4N2 (11742367_at) / RFU PRRT2 (11749266_a_at) / Fold change /veh PRRT2 (11749266_a_at) / RFU SNX32 (11753110_a_at) / Fold change /veh SNX32 (11753110_a_at) / RFU CDHR5 (11726645_a_at) / Fold change /veh CDHR5 (11726645_a_at) / RFU RCAN1 (11760418_a_at) / Fold change /veh RCAN1 (11760418_a_at) / RFU FAM167A (11723789_a_at) / Fold change /veh FAM167A (11723789_a_at) / RFU FAM26E (11764081_at) / Fold change /veh FAM26E (11764081_at) / RFU ISYNA1 (11749810_s_at) / Fold change /veh ISYNA1 (11749810_s_at) / RFU ACY1 (11761880_at) / Fold change /veh ACY1 (11761880_at) / RFU 11764098_at / Fold change /veh 11764098_at / RFU SAMD14 (11745864_x_at) / Fold change /veh SAMD14 (11745864_x_at) / RFU NPB (11741838_a_at) / Fold change /veh NPB (11741838_a_at) / RFU TMPRSS6 (11731388_a_at) / Fold change /veh TMPRSS6 (11731388_a_at) / RFU KRTAP10-2 (11738614_at) / Fold change /veh KRTAP10-2 (11738614_at) / RFU ARHGAP8 /// PRR5-ARHGAP8 (11727945_x_at) / Fold change /veh ARHGAP8 /// PRR5-ARHGAP8 (11727945_x_at) / RFU KRTAP5-7 /// NADSYN1 (11734609_at) / Fold change /veh KRTAP5-7 /// NADSYN1 (11734609_at) / RFU RASL12 (11751679_a_at) / Fold change /veh RASL12 (11751679_a_at) / RFU CDKN2B (11736163_a_at) / Fold change /veh CDKN2B (11736163_a_at) / RFU PRF1 (11729649_at) / Fold change /veh PRF1 (11729649_at) / RFU, ZNF638 /// ZNF638-IT1 / Fold change vs veh, ZNF638 /// ZNF638-IT1 / RFU, PANK3 / Fold change vs veh, PANK3 / RFU, SH3YL1 / Fold change vs veh, SH3YL1 / RFU, ZEB2 / Fold change vs veh, ZEB2 / RFU, NRIP1 / Fold change vs veh, NRIP1 / RFU, PTTG1IP / Fold change vs veh, PTTG1IP / RFU, CAPN2 / Fold change vs veh, CAPN2 / RFU, MED14 / Fold change vs veh, MED14 / RFU, SNORA58 / Fold change vs veh, SNORA58 / RFU, C1orf63 / Fold change vs veh, C1orf63 / RFU, LRRFIP1 / Fold change vs veh, LRRFIP1 / RFU, NDUFAF7 / Fold change vs veh, NDUFAF7 / RFU, SLC12A2 / Fold change vs veh, SLC12A2 / RFU, IBTK / Fold change vs veh, IBTK / RFU, ESF1 / Fold change vs veh, ESF1 / Fold change vs veh, TMEM50B / RFU, TAOK1 / Fold change vs veh, TAOK1 / RFU, ACBD3 / Fold change vs veh, ACBD3 / RFU, TMA16 / Fold change vs veh, TMA16 / RFU, RWDD3 / Fold change vs veh, RWDD3 / RFU, BCAT1 / Fold change vs veh, BCAT1 / RFU, EDEM3 / Fold change vs veh, EDEM3 / RFU, TMEM33 / Fold change vs veh, TMEM33 / RFU, WDR75 / Fold change vs veh, WDR75 / RFU, AHCTF1 / Fold change vs veh, AHCTF1 / RFU, TFRC / Fold change vs veh, TFRC / RFU, ZDHHC17 / Fold change vs veh, ZDHHC17 / RFU, NOM1 / Fold change vs veh, NOM1 / RFU, ARL8B / Fold change vs veh, ARL8B / RFU, ZBTB11 / Fold change vs veh, ZBTB11 / RFU, TAMM41 / Fold change vs veh, TAMM41 / RFU, KIAA1704 /// LOC100996395 / Fold change vs veh, KIAA1704 /// LOC100996395 / RFU, ING1 / Fold change vs veh, ING1 / RFU, TRMT61B / Fold change vs veh, TRMT61B / RFU, FUBP3 / Fold change vs veh, FUBP3 / RFU, TP53 / Fold change vs veh, TP53 / RFU, TNKS2 / Fold change vs veh, TNKS2 / RFU, ZFP14 / Fold change vs veh, ZFP14 / RFU, ACTR2 / Fold change vs veh, ACTR2 / RFU, PPP3R1 / Fold change vs veh, PPP3R1 / RFU, PIK3R1 / Fold change vs veh, PIK3R1 / RFU, HNRNPA1 / Fold change vs veh, HNRNPA1 / RFU, RNF170 / Fold change vs veh, RNF170 / RFU, ZNF28 / Fold change vs veh, ZNF28 / RFU, RNGTT / Fold change vs veh, RNGTT / RFU, OGT / Fold change vs veh, OGT / RFU, BRD1 / Fold change vs veh, BRD1 / RFU, MARS / Fold change vs veh, MARS / RFU, ZNF655 / Fold change vs veh, ZNF655 / RFU, FAHD1 / Fold change vs veh, FAHD1 / RFU, BDP1 / Fold change vs veh, BDP1 / RFU, LRRCC1 / Fold change vs veh, LRRCC1 / RFU, ARID1A / Fold change vs veh, ARID1A / RFU, ZNF146 / Fold change vs veh, ZNF146 / RFU, ZNF330 / Fold change vs veh, ZNF330 / RFU, GPN3 / Fold change vs veh, GPN3 / RFU, C9orf123 / Fold change vs veh, C9orf123 / RFU, N4BP2L2 / Fold change vs veh, N4BP2L2 / RFU, ARFIP1 / Fold change vs veh, ARFIP1 / RFU, FAM179B / Fold change vs veh, FAM179B / RFU, BCL10 / Fold change vs veh, BCL10 / RFU, UHRF1BP1L / Fold change vs veh, UHRF1BP1L / RFU, BET1 / Fold change vs veh, BET1 / RFU, CNOT2 / Fold change vs veh, CNOT2 / RFU, ZNF268 / Fold change vs veh, ZNF268 / Fold change vs veh, ZNF507 / RFU, DGCR2 / Fold change vs veh, DGCR2 / RFU, WDSUB1 / Fold change vs veh, WDSUB1 / Fold change vs veh, HSP90B1 /// MIR3652 / RFU, ADSS / Fold change vs veh, ADSS / RFU, GK / Fold change vs veh, GK / RFU, ZNF148 / Fold change vs veh, ZNF148 / RFU, TAF9 / Fold change vs veh, TAF9 / RFU, SLC1A5 / Fold change vs veh, SLC1A5 / RFU, SLMO2 / Fold change vs veh, SLMO2 / RFU, ABCC4 / Fold change vs veh, ABCC4 / RFU, LOC101060439 /// RAP1B / Fold change vs veh, LOC101060439 /// RAP1B / RFU, RFX7 / Fold change vs veh, RFX7 / RFU, GTPBP10 / Fold change vs veh, GTPBP10 / RFU, CNEP1R1 / Fold change vs veh, CNEP1R1 / RFU, BIVM-ERCC5 /// ERCC5 / Fold change vs veh, BIVM-ERCC5 /// ERCC5 / RFU, ILF3 / Fold change vs veh, ILF3 / RFU 11762660_at / Fold change /veh 11762660_at / RFU VCAN (11757783_s_at) / Fold change /veh VCAN (11757783_s_at) / RFU DDX43 (11728927_at) / Fold change /veh DDX43 (11728927_at) / RFU KRT8 (11758188_x_at) / Fold change /veh KRT8 (11758188_x_at) / RFU NKD1 (11759106_at) / Fold change /veh NKD1 (11759106_at) / RFU SRD5A1 (11742802_a_at) / Fold change /veh SRD5A1 (11742802_a_at) / RFU TPSAB1 /// TPSB2 (11721975_s_at) / Fold change /veh TPSAB1 /// TPSB2 (11721975_s_at) / RFU GSTM3 (11746129_a_at) / Fold change /veh GSTM3 (11746129_a_at) / RFU IL23R (11737362_x_at) / Fold change /veh IL23R (11737362_x_at) / RFU TMEM51 (11727254_a_at) / Fold change /veh TMEM51 (11727254_a_at) / RFU PIWIL2 (11732686_x_at) / Fold change /veh PIWIL2 (11732686_x_at) / RFU ORM1 (11744905_x_at) / Fold change /veh ORM1 (11744905_x_at) / RFU CCDC152 (11743942_at) / Fold change /veh CCDC152 (11743942_at) / RFU ECM1 (11717891_a_at) / Fold change /veh ECM1 (11717891_a_at) / RFU IL23R (11748794_a_at) / Fold change /veh IL23R (11748794_a_at) / RFU TNFAIP8L3 (11732012_x_at) / Fold change /veh TNFAIP8L3 (11732012_x_at) / RFU MBOAT4 (11741988_at) / Fold change /veh MBOAT4 (11741988_at) / RFU 11764193_at / Fold change /veh 11764193_at / RFU TMEM53 (11763286_at) / Fold change /veh TMEM53 (11763286_at) / RFU MAGEB2 (11727129_at) / Fold change /veh MAGEB2 (11727129_at) / RFU TMEM200A (11744735_a_at) / Fold change /veh TMEM200A (11744735_a_at) / RFU CCDC152 (11751479_a_at) / Fold change /veh CCDC152 (11751479_a_at) / RFU FAM211A (11726209_a_at) / Fold change /veh FAM211A (11726209_a_at) / RFU RGS16 (11746705_a_at) / Fold change /veh RGS16 (11746705_a_at) / RFU VCAN (11755009_s_at) / Fold change /veh VCAN (11755009_s_at) / RFU RHOB (11743442_s_at) / Fold change /veh RHOB (11743442_s_at) / RFU RGS16 (11720943_a_at) / Fold change /veh RGS16 (11720943_a_at) / RFU RGS16 (11720944_at) / Fold change /veh RGS16 (11720944_at) / RFU, VPS4B / Fold change vs veh, VPS4B / RFU, CREB1 / Fold change vs veh, CREB1 / RFU, DNAJC13 / Fold change vs veh, DNAJC13 / RFU, GNAQ / Fold change vs veh, GNAQ / RFU, CDK5R1 / Fold change vs veh, CDK5R1 / RFU, ZRANB3 / Fold change vs veh, ZRANB3 / RFU, CUL4A / Fold change vs veh, CUL4A / RFU, CCNY / Fold change vs veh, CCNY / RFU, UFL1 / Fold change vs veh, UFL1 / RFU, COG3 / Fold change vs veh, COG3 / RFU, DIAPH2 / Fold change vs veh, DIAPH2 / RFU, SKA2 / Fold change vs veh, SKA2 / RFU, AFF3 / Fold change vs veh, AFF3 / RFU, LMF1 / Fold change vs veh, LMF1 / RFU, IPO11 / Fold change vs veh, IPO11 / RFU, DFFB / Fold change vs veh, DFFB / RFU, FOXP1 / Fold change vs veh, FOXP1 / RFU, CARD8 / Fold change vs veh, CARD8 / RFU, STRN3 / Fold change vs veh, STRN3 / RFU, ADK / Fold change vs veh, ADK / RFU, RASSF2 / Fold change vs veh, RASSF2 / RFU, WIPF1 / Fold change vs veh, WIPF1 / RFU, LARP1B / Fold change vs veh, LARP1B / RFU, RASA1 / Fold change vs veh, RASA1 / RFU, RB1 / Fold change vs veh, RB1 / RFU, PPFIA1 / Fold change vs veh, PPFIA1 / RFU, MAT2A / Fold change vs veh, MAT2A / RFU, CCT5 / Fold change vs veh, CCT5 / RFU, WDR92 / Fold change vs veh, WDR92 / RFU, CUX1 / Fold change vs veh, CUX1 / RFU, TTC7A / Fold change vs veh, TTC7A / RFU, TMEM135 / Fold change vs veh, TMEM135 / RFU, DEPTOR / Fold change vs veh, DEPTOR / RFU, CPM / Fold change vs veh, CPM / RFU, DNAJB6 / Fold change vs veh, DNAJB6 / RFU, CACNA2D3 / Fold change vs veh, CACNA2D3 / RFU, DTX4 / Fold change vs veh, DTX4 / RFU, TFCP2 / Fold change vs veh, TFCP2 / RFU, GMCL1 /// GMCL1P1 / Fold change vs veh, GMCL1 /// GMCL1P1 / RFU, AEBP2 / Fold change vs veh, AEBP2 / RFU, SNHG1 /// SNORD22 /// SNORD25 /// SNORD26 /// SNORD27 /// SNORD28 /// SNORD29 /// SNORD31 / Fold change vs veh, SNHG1 /// SNORD22 /// SNORD25 /// SNORD26 /// SNORD27 /// SNORD28 /// SNORD29 /// SNORD31 / Fold change (Aza/veh), C12orf56 (ProbeSet 11735607_a_at) / Fold change (ACY-1035/veh), C12orf56 (ProbeSet 11735607_a_at) / Fold change (Aza/veh), FGFR1OP (ProbeSet 11751329_s_at) / Fold change (ACY-1035/veh), FGFR1OP (ProbeSet 11751329_s_at) / Fold change (Aza/veh), VPS36 (ProbeSet 11739960_a_at) / Fold change (ACY-1035/veh), VPS36 (ProbeSet 11739960_a_at) / RFU SYPL1 (11715823_x_at) / Fold change /veh SYPL1 (11715823_x_at) / RFU IGFBP7 (11715501_s_at) / Fold change /veh IGFBP7 (11715501_s_at) / RFU REEP3 (11722064_at) / Fold change /veh REEP3 (11722064_at) / RFU IGLL1 (11728026_x_at) / Fold change /veh IGLL1 (11728026_x_at): dose or concentration left out as unconfirmed", "conditions": "ProbeSet 11760938_a_at; LIST D"}
{"smiles": "Nc1ccc(-c2cccs2)cc1NC(=O)c1ccc2c(c1)cc(C1CC1)n2CCN1CCOCC1", "note": "[ACY-1035]", "values": [{"measurement": "RFU, MAT2A", "value": 163.17, "unit": "RFU"}]}
